Laboratory results reported in US20250186391A1, “ORAL COMPLEMENT FACTOR D INHIBITORS” (BioCryst Pharmaceuticals, Inc., priority 2019, published 2025).

Target: Factor D (Homo sapiens (Human), UniProt P00746)
Experiment: Factor D esterolytic assay
Type: biochemical
Conditions: Z-Lys-SBzl substrate, 100 mM HEPES, 500 mM NaCl, pH 7.5, 10% DMSO; tested a minimum of three times; read-out: Measured Ki (IC50) Value for Compounds: IC50
Procedure, shortened: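 Chromogenic thioesterase read-out: Z-Lys-SBzl (1.29 mM) hydrolysis by human Factor D, thiol detected with DTNB at 405 nm (690 nm background subtracted) for 600 s. Run in 100 mM HEPES, 500 mM NaCl, pH 7.5, 10% DMSO, substrate added immediately or after room-temperature preincubation. IC50 from percent inhibition versus enzyme alone, n≥3.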

Chain of Factor D (P00746 26-253): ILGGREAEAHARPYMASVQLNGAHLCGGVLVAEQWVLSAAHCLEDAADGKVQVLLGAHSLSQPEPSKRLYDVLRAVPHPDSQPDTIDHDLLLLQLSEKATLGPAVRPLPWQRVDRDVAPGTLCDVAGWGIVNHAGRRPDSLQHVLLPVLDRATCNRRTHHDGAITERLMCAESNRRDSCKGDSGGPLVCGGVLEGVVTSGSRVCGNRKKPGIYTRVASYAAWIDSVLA

`NCc1cccc(-c2ccc3occ(COc4c(CC(=O)O)cccc4C(=O)O)c3c2)c1` [Compound 301d, 2-((5-(3-(aminomethyl)phenyl)benzofuran-3-yl)methoxy)-3-(carboxymethyl)benzoic acid] and `Cc1cccc(CC(=O)O)c1OCc1coc2ccc(-c3cccc(CN)c3)cc12` [Compound 107d, 2-(2-((5-(3-(aminomethyl)phenyl)benzofuran-3-yl)methoxy)-3-methylphenyl)acetic acid] cannot be ordered by IC50: under 1000 nM for the first, under 1000 nM for the second.

`CCOC(=O)Cc1ccc(OC)cc1OCc1nn(C)c2ccc(-c3ccnc(CN)c3)cc12` [Compound 315b, ethyl 2-(2-((5-(2-(aminomethyl)pyridin-4-yl)-1-methyl-1H-indazol-3-yl)methoxy)-4-methoxyphenyl)acetate] and `COc1ccc(CC(=O)O)c(OCc2nn(C)c3ccc(-c4cccc(CN)c4)cc23)c1` [Compound 185c, 2-(2-((5-(3-(aminomethyl)phenyl)-1-methyl-1H-indazol-3-yl)methoxy)-4-methoxyphenyl)acetic acid] cannot be ordered by IC50: under 1000 nM for the first, under 1000 nM for the second.

`Cc1ccc(CC(=O)O)c(OCc2nn(C)c3ccc(-c4cccc(CN)c4)cc23)c1` [Compound 206c, 2-(2-((5-(3-(aminomethyl)phenyl)-1-methyl-1H-indazol-3-yl)methoxy)-4-methylphenyl)acetic acid] and `COc1ccc(CC(=O)O)c(OCc2nn(C(C)C)c3ccc(-c4cccc(CN)c4)cc23)c1` [Compound 213c, 2-(2-((5-(3-(aminomethyl)phenyl)-1-isopropyl-1H-indazol-3-yl)methoxy)-4-methoxyphenyl)acetic acid] cannot be ordered by IC50: under 1000 nM for the first, under 1000 nM for the second.

`NCc1cccc(-c2cccc3oc(COc4ccccc4CC(=O)O)cc23)c1` [Compound 26a, 2-(2-((4-(3-(aminomethyl)phenyl)benzofuran-2-yl)methoxy)phenyl)acetic acid] and `NCc1cccc(-c2cccc3cc(COc4ccccc4CC(=O)O)sc23)c1` [Compound 30d, 2-(2-((7-(3-(aminomethyl)phenyl)benzo[b]thiophen-2-yl)methoxy)phenyl)acetic acid] cannot be ordered by IC50: under 1000 nM for the first, under 1000 nM for the second.

First: CC(O)c1cc(-c2cccc(CN)c2)c2oc(COc3ccccc3CC(=O)O)cc2c1 (stereo not drawn) [Compound 31, 2-(2-((7-(3-(aminomethyl)phenyl)-5-(1-hydroxyethyl)benzofuran-2-yl)methoxy)phenyl)acetic acid]
Second: NCc1cccc(-c2cc(N)c3oc(COc4ccccc4CC(=O)O)cc3c2)c1 [Compound 235g, 2-(2-((7-amino-5-(3-(aminomethyl)phenyl)benzofuran-2-yl)methoxy)phenyl)acetic acid]
The IC50 of the first is lower: under 1000 nM for the first, over 10000 nM for the second.

`NCc1cccc(-c2cc(CNCC3CC3)c3occ(COc4ccccc4CC(=O)O)c3c2)c1` [Compound 209c, 2-(2-((5-(3-(aminomethyl)phenyl)-7-(((cyclopropylmethyl)amino)methyl)benzofuran-3-yl)methoxy)phenyl)acetic acid] and `NCc1cccc(-c2cc(NCC3CCCO3)c3occ(COc4ccccc4CC(=O)O)c3c2)c1` (stereo not drawn) [Compound 149d, 2-(2-((5-(3-(aminomethyl)phenyl)-7-(((tetrahydrofuran-2-yl)methyl)amino)benzofuran-3-yl)methoxy)phenyl)acetic acid] cannot be ordered by IC50: under 1000 nM for the first, under 1000 nM for the second.

`NCc1cccc(-c2ccc3oc(C4CC4)c(COc4ccccc4CC(=O)O)c3c2)c1` [Compound 133f, 2-(2-((5-(3-(aminomethyl)phenyl)-2-cyclopropylbenzofuran-3-yl)methoxy)phenyl)acetic acid] and `NCc1cccc(-c2ccc3oc(-c4ccc(F)cc4)c(COc4ccccc4CC(=O)O)c3c2)c1` [Compound 167e, 2-(2-((5-(3-(aminomethyl)phenyl)-2-(4-fluorophenyl)benzofuran-3-yl)methoxy)phenyl)acetic acid] cannot be ordered by IC50: under 1000 nM for the first, under 1000 nM for the second.

`NCc1cc(-c2ccc3occ(COc4ccccc4CC(=O)O)c3c2)ccn1` [Compound 53b, 2-(2-((5-(2-(aminomethyl)pyridin-4-yl)benzofuran-3-yl)methoxy)phenyl)acetic acid] and `NCc1cccc(-c2ccc3occ(COc4cc(Br)ccc4CC(=O)O)c3c2)c1` [Compound 192b, 2-(2-((5-(3-(aminomethyl)phenyl)benzofuran-3-yl)methoxy)-4-bromophenyl)acetic acid] cannot be ordered by IC50: under 1000 nM for the first, under 1000 nM for the second.

`NCc1cccc(-c2cc(CN3CCC[C@H]3C(F)(F)F)c3occ(COc4ccccc4CC(=O)O)c3c2)c1` [Compound 178f, (S)-2-(2-((5-(3-(aminomethyl)phenyl)-7-((2-(trifluoromethyl)pyrrolidin-1-yl)methyl)benzofuran-3-yl)methoxy)phenyl)acetic acid] and `CC(C)CNc1cc(-c2cccc(CN)c2)cc2c(COc3ccccc3CC(=O)O)coc12` [Compound 151d, 2-(2-((5-(3-(aminomethyl)phenyl)-7-(isobutylamino)benzofuran-3-yl)methoxy)phenyl)acetic acid] cannot be ordered by IC50: under 1000 nM for the first, under 1000 nM for the second.

`NCc1cccc(-c2ccc3occ(COc4cc(CN)ccc4CC(=O)O)c3c2)c1` [Compound 156c, 2-(4-(aminomethyl)-2-((5-(3-(aminomethyl)phenyl)benzofuran-3-yl)methoxy)phenyl)acetic acid] and `NCc1cccc(-c2ccc3occ(COc4cc(C(=O)O)ccc4CC(=O)O)c3c2)c1` [Compound 158d, 3-((5-(3-(aminomethyl)phenyl)benzofuran-3-yl)methoxy)-4-(carboxymethyl)benzoic acid] cannot be ordered by IC50: under 1000 nM for the first, under 1000 nM for the second.

`CC(C)c1ccccc1-c1cc(-c2cccc(CN)c2)cc2c(COc3ccccc3CC(=O)O)coc12` [Compound 219c, 2-(2-((5-(3-(aminomethyl)phenyl)-7-(2-isopropylphenyl)benzofuran-3-yl)methoxy)phenyl)acetic acid] and `Cc1cccc(C)c1-c1cc(-c2cccc(CN)c2)cc2c(COc3ccccc3CC(=O)O)coc12` [Compound 220c, 2-(2-((5-(3-(aminomethyl)phenyl)-7-(2,6-dimethylphenyl)benzofuran-3-yl)methoxy)phenyl)acetic acid] cannot be ordered by IC50: under 1000 nM for the first, under 1000 nM for the second.

`CC(C(=O)O)c1ccccc1OCc1coc2c(NCC3CCCC3)cc(-c3cccc(CN)c3)cc12` (stereo not drawn) [Compound 186c, 2-(2-((5-(3-(aminomethyl)phenyl)-7-((cyclopentylmethyl)amino)benzofuran-3-yl)methoxy)phenyl)propanoic acid] and `COc1ccc(CC(=O)O)c(OCc2coc3c(OCC4CC4)cc(-c4cccc(CN)c4)cc23)c1` [Compound 160c, 2-(2-((5-(3-(aminomethyl)phenyl)-7-(cyclopropylmethoxy)benzofuran-3-yl)methoxy)-4-methoxyphenyl)acetic acid] cannot be ordered by IC50: under 1000 nM for the first, under 1000 nM for the second.

`CCc1oc2ccc(-c3cccc(CN)c3F)cc2c1COc1cc(OC)ccc1CC(=O)O` [Compound 227b, 2-(2-((5-(3-(aminomethyl)-2-fluorophenyl)-2-ethylbenzofuran-3-yl)methoxy)-4-methoxyphenyl)acetic acid] and `COc1ccc(CC(=O)O)c(OCc2c(C(C)O)oc3ccc(-c4cccc(CN)c4)cc23)c1` (stereo not drawn) [Compound 217c, 2-(2-((5-(3-(aminomethyl)phenyl)-2-(1-hydroxyethyl)benzofuran-3-yl)methoxy)-4-methoxyphenyl)acetic acid] cannot be ordered by IC50: under 1000 nM for the first, under 1000 nM for the second.

`NCc1nccc(-c2cc(COc3ccccc3CC(=O)O)cc3cc(COc4ccccc4CC(=O)O)oc23)c1F` [Compound 28d, 2,2′-((((7-(2-(aminomethyl)-3-fluoropyridin-4-yl)benzofuran-2,5-diyl)bis(methylene))bis(oxy))bis(2,1-phenylene))diacetic acid] and `NCc1cccc(-c2cc3c(COc4ccccc4CC(=O)O)coc3c3ccoc23)c1` [Compound 123g, 2-(2-((5-(3-(aminomethyl)phenyl)benzo[1,2-b:3,4-b′]difuran-3-yl)methoxy)phenyl)acetic acid] cannot be ordered by IC50: under 1000 nM for the first, under 1000 nM for the second.

`COc1ccc(CC(=O)O)c(OCc2coc3c2cc(-c2cccc(CN)c2)c2occc23)c1` [Compound 231c, 2-(2-((5-(3-(aminomethyl)phenyl)benzo[1,2-b:3,4-b′]difuran-3-yl)methoxy)-4-methoxyphenyl)acetic acid] and `NCc1cccc(-c2cc3c(COc4ccccc4CC(=O)O)coc3c3occc23)c1` [Compound 229g, 2-(2-((5-(3-(aminomethyl)phenyl)benzo[1,2-b:6,5-b′]difuran-3-yl)methoxy)phenyl)acetic acid] cannot be ordered by IC50: under 1000 nM for the first, under 1000 nM for the second.

`NCc1cccc(-c2ccc3occ(COc4c(F)cccc4CC(=O)O)c3c2)c1` [Compound 44d, 2-(2-((5-(3-(aminomethyl)phenyl)benzofuran-3-yl)methoxy)-3-fluorophenyl)acetic acid] and `COc1ccc(CC(=O)O)c(OCc2coc3c(C)cc(-c4cccc(CN)c4)cc23)c1` [Compound 253c, 2-(2-((5-(3-(aminomethyl)phenyl)-7-methylbenzofuran-3-yl)methoxy)-4-methoxyphenyl)acetic acid] cannot be ordered by IC50: under 1000 nM for the first, under 1000 nM for the second.

Going from `CC(C)Cn1cc(-c2cc(-c3cccc(CN)c3)cc3c(COc4ccccc4CC(=O)O)coc23)cn1` [Compound 129c, 2-(2-((5-(3-(aminomethyl)phenyl)-7-(1-isobutyl-1H-pyrazol-4-yl)benzofuran-3-yl)methoxy)phenyl)acetic acid] to `NCc1cccc(-c2cccc3ccc(COc4ccccc4CC(=O)O)cc23)c1` [Compound 99d, 2-(2-((8-(3-(aminomethyl)phenyl)naphthalen-2-yl)methoxy)phenyl)acetic acid], the IC50 rises from under 1000 nM to over 10000 nM.

Compared with `Cn1nc(NC(=O)c2ccccc2CC(=O)O)c2cc(-c3cccc(CN)c3)ccc21` [Compound 74d, 2-(2-((5-(3-(aminomethyl)phenyl)-1-methyl-1H-indazol-3-yl)carbamoyl)phenyl)acetic acid], `COc1c(-c2ccc3c(c2)c(COc2ccccc2CC(=O)O)nn3C2CCCC2)ccnc1CN` [Compound 327d, 2-(2-((5-(2-(aminomethyl)-3-methoxypyridin-4-yl)-1-cyclopentyl-1H-indazol-3-yl)methoxy)phenyl)acetic acid] is higher in IC50: under 1000 nM for the first, 1000 to 10000 nM for the second.
